Structures are written as SMILES.

Data set [1] in a line: Metabolic stability in liver microsomes, dog. To be noted: Beagle, 0.5 mg/mL microsomes, NADPH, 45 minutes, 37° C., read-out: Half-life in liver microsomes (t1/2, minutes). Type of data set: in vitro ADME. Here is the method:
(§1) The test compound was incubated with liver microsomes (0.5 mg/mL) from CD-1 mouse, Sprague Dawley rat, Beagle dog, Cynomolgus monkey, and human in the presence of NADPH for 45 minutes at 37° C. The % parent remaining over time was determined by LC-MS/MS, using peak area ratios. Half-life (t1/2) was calculated using the following equation: t1/2=ln2/k, where k is the rate constant of parent decay over time (slope of the plot of log[% parent remaining] versus time).
In general terms: Microsomes from liver hold many membrane-bound enzymes, among them those of drug oxidation.

Another data set addresses human DLK (Homo sapiens (Human), UniProt Q12852). Nature of the data set: DLK Kd determination (KINOMEscan KdELECT, DiscoveRx). The format is binding. To be noted: read-out: Kd.
Data set [2] in a line: Metabolic stability in liver microsomes, rat. Type of data set: in vitro ADME. To be noted: Sprague Dawley, 0.5 mg/mL microsomes, NADPH, 45 minutes, 37° C., read-out: Half-life in liver microsomes (t1/2, minutes). Here is the method: as §1
Data set [3] can be described thus: Metabolic stability in liver microsomes, monkey. Type of data set: in vitro ADME, Cynomolgus monkey. To be noted: 0.5 mg/mL microsomes, NADPH, 45 minutes, 37° C., read-out: Half-life in liver microsomes (t1/2, minutes). As for the experimental part: as §1
Data set [4] is described as follows: Mouse pharmacokinetics, single dose. Type of data set: in vivo, male C57BL/6 mice. The note with it: for Kp / unbound brain-to-plasma ratio (Kp,uu): male, C57BL/6, mouse, brain and plasma, po, 10 mg/kg, based on AUC; for Kp / unbound brain-to-plasma ratio (Kp,uu) / clearance / half-life / Vd / AUC(0-t) / Cmax / bioavailability: male C57BL/6 mice; for Kp / unbound brain-to-plasma ratio (Kp,uu) / AUC(0-t) / Cmax / bioavailability: oral dose 10 mg/kg; for Kp: read-out: Brain/Plasma Ratio; for unbound brain-to-plasma ratio (Kp,uu): read-out: Free Brain/Plasma Ratio; for clearance / half-life / Vd / AUC(0-t) / Cmax / bioavailability: mouse; for clearance / half-life / Vd: in vivo, IV dose 0.3 mg/kg (1a, 4b, 13, 14b, 16; IV dose of 8a, 9b not stated); for Vd: read-out: Vss; for AUC(0-t) / Cmax / bioavailability: plasma; for clearance in mice, comparison in words / half-life in mice, comparison in words: relative to comparator compounds 13 or 14b.

A short description of data set [5]: Metabolic stability in liver microsomes, mouse. Type of data set: in vitro ADME, CD-1 mouse. To be noted: CD-1, liver microsomes, 0.5 mg/mL microsomes, NADPH, 45 minutes, 37° C., read-out: Half-life in liver microsomes (t1/2, minutes). As for the experimental part: as §1
Data set [6] in a line: Metabolic stability in liver microsomes, human. To be noted: 0.5 mg/mL microsomes, NADPH, 45 minutes, 37° C., read-out: Half-life in liver microsomes (t1/2, minutes). Type of data set: in vitro ADME. As for the experimental part:
as §1

The nature of data set [7]: Metabolic stability in liver microsome preparations, overall comparison. Type of data set: in vitro ADME. To be noted: relative to comparator compounds 13 or 14/14b (WO2018207072). As for the experimental part:
as §1

Data set [8] in a line: Rat pharmacokinetics, single dose. The note with it: for clearance / half-life / Vd / AUC(0-t) / Cmax / bioavailability: rat, in vivo, Wistar Han rats; for clearance / half-life / Vd: IV dose 1 mg/kg; for Vd: read-out: Vss; for AUC(0-t) / Cmax / bioavailability: oral dose 3 mg/kg; for clearance in rats, comparison in words / half-life in rats, comparison in words: relative to comparator compound 13. The format is in vivo, Wistar Han rats. Here is the method: Pharmacokinetics for compounds 13, 1a, and 9b were determined using single dosage of Wistar Han rats using techniques that are well known in the art.

human DLK, sequence (Q12852 whole entry): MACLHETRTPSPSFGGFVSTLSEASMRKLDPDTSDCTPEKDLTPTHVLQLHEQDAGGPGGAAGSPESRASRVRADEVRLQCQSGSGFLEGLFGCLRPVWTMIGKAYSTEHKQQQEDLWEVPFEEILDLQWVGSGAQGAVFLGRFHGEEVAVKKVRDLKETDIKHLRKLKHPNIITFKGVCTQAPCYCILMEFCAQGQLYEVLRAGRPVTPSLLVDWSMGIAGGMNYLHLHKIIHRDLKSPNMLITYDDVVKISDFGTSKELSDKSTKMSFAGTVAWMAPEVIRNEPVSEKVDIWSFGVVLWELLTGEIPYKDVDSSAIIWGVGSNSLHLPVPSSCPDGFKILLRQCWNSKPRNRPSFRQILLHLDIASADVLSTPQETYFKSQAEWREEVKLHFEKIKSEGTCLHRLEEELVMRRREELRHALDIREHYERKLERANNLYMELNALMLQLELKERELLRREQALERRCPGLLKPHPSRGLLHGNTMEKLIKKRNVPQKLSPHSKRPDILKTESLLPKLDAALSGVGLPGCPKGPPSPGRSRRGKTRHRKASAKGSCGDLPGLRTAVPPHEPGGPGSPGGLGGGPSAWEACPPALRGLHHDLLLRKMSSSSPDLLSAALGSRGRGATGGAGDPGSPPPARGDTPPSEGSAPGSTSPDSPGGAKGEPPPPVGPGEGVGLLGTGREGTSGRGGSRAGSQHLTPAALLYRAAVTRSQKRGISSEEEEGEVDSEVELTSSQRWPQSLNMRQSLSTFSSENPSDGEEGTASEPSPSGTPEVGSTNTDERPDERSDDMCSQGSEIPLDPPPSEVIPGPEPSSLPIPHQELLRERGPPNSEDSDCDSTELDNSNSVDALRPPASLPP
Method for human DLK: The DLK dissociation constants (Kd) have been determined in the KINOMEscan KdELECT Service at DiscoveRx.
A fusion protein of full length of human DLK (amino acids 1-859) and the DNA binding domain of NFkB was expressed in transiently transfected HEK293 cells. From these HEK 293 cells, extracts were prepared in M-PER extraction buffer (Pierce) in the presence of Protease Inhibitor Cocktail Complete (Roche) and Phosphatase Inhibitor Cocktail Set II (Merck) per manufacturers' instructions. The DLK fusion protein was labeled with a chimeric double-stranded DNA tag containing the NFkB binding site (5′-[sequence]-3′, SEQ ID NO:1) fused to an amplicon for qPCR readout, which was added directly to the expression extract (the final concentration of DNA-tag in the binding reaction is 0.1 nM).
The liganded beads were blocked with excess biotin and washed with blocking buffer (SeaBlock (Pierce), 1% BSA, 0.05% Tween 20, 1 mM DTT) to remove unbound ligand and to reduce nonspecific binding.
Extracts were used directly in binding assays without any enzyme purification steps at a >10,000-fold overall stock dilution (final DNA-tagged enzyme concentration <0.1 nM). Extracts were loaded with DNA-tag and diluted into the binding reaction in a two step process. First extracts were diluted 1:100 in 1× binding buffer (PBS/0.05% Tween 20/10 mM DTT/0.1% BSA/2 μg/ml sonicated salmon sperm DNA) containing 10 nM DNA-tag. This dilution was allowed to equilibrate at room temperature for 15 minutes and then subsequently diluted 1:100 in 1× binding buffer. Test compounds were prepared as 111× stocks in 100% DMSO. Kds were determined using an 11-point 3-fold compound dilution series with three DMSO control points. […] The compounds were then diluted directly into the assays such that the final concentration of DMSO was 0.9%. All reactions performed in polypropylene 384-well plates. Each was a final volume of 0.02 mL. Assays were incubated with shaking for 1 hour at room temperature. Then the beads were pelleted and washed with wash buffer (1×PBS, 0.05% Tween 20) to remove displaced kinase and test compound. […] The kinase concentration in the eluates was measured by qPCR. qPCR reactions were assembled by adding 2.5 μL of kinase eluate to 7.5 μL of qPCR master mix containing 0.15 μM amplicon primers and 0.15 μM amplicon probe.
Test compounds were prepared as 111× stocks in 100% DMSO. Kds were determined using an 11-point 3-fold compound dilution series with three DMSO control points. […] The compounds were then diluted directly into the assays such that the final concentration of DMSO was 0.9%. The Kds were determined using a compound top concentration of 30,000 nM. Kd measurements were performed in duplicate.
Binding constants (Kds) were calculated with a standard dose-response curve using the Hill equation:
The Hill Slope was set to −1.

With `Nc1ncc(-c2cn(C34CC(F)(C3)C4)c([C@@H](O)C(F)(F)F)n2)cc1OC(F)(F)F` (single isomer, unassigned) [Example 1a], in data set [1], the half-life came to 287 min. In addition, the Kd on human DLK worked out at 2.2 nM. Moreover, in data set [2], the half-life turned out to be 154 min. In addition, the half-life in data set [3] was determined as 182 min. In addition, in data set [4], the Kp was found to be 1.77, the unbound brain-to-plasma ratio (Kp,uu) came out at 0.92, the clearance amounted to 4.3 mL/min/kg and the half-life was 12.7 h. Besides, in data set [4], the Vd was 4.5 L/kg, the AUC(0-t) stood at 111 µM·h, the Cmax is 6360 nM and the bioavailability came out at 154%. In addition, in data set [4], the “clearance in mice, comparison in words” value is reported as “reduced clearance” and the “half-life in mice, comparison in words” value is “longer half-life”. The half-life in data set [5] came out at 378 min. Besides, the half-life in [6] amounted to 558 min. In addition, the “microsomal stability, comparison in words” value (from here on “microsomal stability”) in data set [7] is “improvements to microsomal stability”. Also, in data set [8], the clearance turned out to be 5.9 mL/min/kg, the half-life was 11.5 h, the Vd is 4.9 L/kg and the AUC(0-t) was 16.8 µM·h. Besides, in [8], the concentration peaked (Cmax) at 1310 nM; the bioavailability amounted to 103%; the “clearance in rats, comparison in words” value is listed as “reduced clearance”; the “half-life in rats, comparison in words” value is “longer half-life”.
In the case of `CC(C)[C@H](O)c1nc(-c2cnc(N)c(C(F)(F)F)c2)cn1C12CC(F)(C1)C2` (single isomer, unassigned) [Example 4b], the half-life in [1] came to 355 min. Further, the dissociation constant Kd on human DLK came to 0.29 nM. Also, the half-life in data set [2] came out at 30 min. For the same compound, in data set [3], the half-life was determined as 22 min. In [4], the Kp stood at 1.72, the unbound brain-to-plasma ratio (Kp,uu) stood at 1.06, the clearance turned out to be 24.5 mL/min/kg and the half-life is 1.86 h. Also, in data set [4], the Vd came to 3.3 L/kg, the area under the curve AUC(0-t) turned out to be 8.67 µM·h, the Cmax was found to be 5420 nM and the bioavailability was determined as 49.2%. Moreover, in data set [4], the “clearance in mice, comparison in words” value was “reduced clearance” and the “half-life in mice, comparison in words” value is recorded as “longer half-life”. Besides, the half-life in data set [5] was determined as 71 min. Further, the half-life in [6] came to 213 min. Also, in [7], the “microsomal stability” value was “improvements to microsomal stability”.
For the compound `Nc1ncc(-c2cn(C34CC(N5CCC(F)(F)CC5)(C3)C4)c([C@H](O)C(F)(F)F)n2)cc1OC(F)(F)F` (single isomer, unassigned) [Example 9b], in data set [1], the half-life stood at 240 min. Further, the dissociation constant (Kd) at human DLK worked out at 1 nM. Moreover, the half-life in data set [2] came out at 581 min. In addition, in [3], the half-life was 331 min. Also, in [4], the Kp was found to be 0.7, the unbound brain-to-plasma ratio (Kp,uu) was 0.31, the clearance amounted to 3.9 mL/min/kg and the half-life is 15.9 h. Further, in [4], the Vd turned out to be 4.8 L/kg, the AUC(0-t) amounted to 39.6 µM·h, the highest level (Cmax) was 2310 nM and the bioavailability was determined as 70.5%. In data set [4], the “clearance in mice, comparison in words” value was “reduced clearance” and the “half-life in mice, comparison in words” value was “longer half-life”. In data set [5], the half-life was found to be 240 min. For the same compound, in data set [6], the half-life is 297 min. The “microsomal stability” value in data set [7] is given as “improvements to microsomal stability”. In data set [8], the clearance was determined as 2.8 mL/min/kg, the half-life was 22.7 h, the Vd came out at 4.7 L/kg and the AUC(0-t) came to 19.2 µM·h. In addition, in [8], the Cmax came to 1050 nM; the bioavailability amounted to 95.9%; the “clearance in rats, comparison in words” value is given as “reduced clearance”; the “half-life in rats, comparison in words” value is “longer half-life”.

Usually Kd stands for the free concentration of one partner at which half of the binding sites on the other are occupied at equilibrium, for simple one-to-one binding. The term clearance denotes the volume of plasma or blood freed of the substance per unit of time. For orientation: AUC(0-t) means the area under the concentration-time curve up to a stated or last time point. By Cmax is commonly meant the peak of the concentration-time curve.

Values taken from patent US11560366B2, “Bicyclo[1.1.1]pentane inhibitors of dual leucine zipper (DLK) kinase for the treatment of disease” (Board of Regents, The University of Texas System, priority 2019, dated 2023).
